Measured values from ChEMBL document CHEMBL1151757, “Synthesis, radiosynthesis, and biological evaluation of fluorine-18-labeled 2beta-carbo(fluoroalkoxy)-3beta-(3'-((Z)-2-haloethenyl)phenyl)nortropanes: candidate radioligands for in vivo imaging of the serotonin transporter with positron emission tomography” (J Med Chem, 2008).

Legend:
[1] = Ratio of drug uptake in pons to cerebellum in anesthetized cynomolgus monkey after 95 mins postinjection; format: ADME, organism-based, Macaca fascicularis; conditions: in vivo
[2] = Ratio of drug uptake in pons to cerebellum in anesthetized cynomolgus monkey after 125 mins postinjection; format: ADME, organism-based, Macaca fascicularis; conditions: in vivo
[3] = Ratio of drug uptake in medulla to cerebellum in anesthetized cynomolgus monkey after 35 mins postinjection; format: ADME, organism-based, Macaca fascicularis; conditions: in vivo
[4] = Ratio of drug uptake in medulla to cerebellum in anesthetized cynomolgus monkey after 195 mins postinjection; format: ADME, organism-based, Macaca fascicularis; conditions: in vivo, 3.25 h
[5] = Drug uptake in anesthetized cynomolgus monkey brain occipital lobe after 6.5 mins postinjection; format: ADME, organism-based, Macaca fascicularis; set-up: unit not given here; conditions: in vivo
[6] = Drug uptake in anesthetized cynomolgus monkey brain occipital lobe after 125 mins postinjection; format: ADME, organism-based, Macaca fascicularis; conditions: in vivo
[7] = Drug uptake in anesthetized cynomolgus monkey brain frontal lobe after 225 mins postinjection; format: ADME, organism-based, Macaca fascicularis; conditions: in vivo, 3.75 h
[8] = Ratio of drug uptake in pons to cerebellum in anesthetized cynomolgus monkey after 6.5 mins postinjection; format: ADME, organism-based, Macaca fascicularis; conditions: in vivo
[9] = Ratio of drug uptake in occipital lobe to cerebellum in anesthetized cynomolgus monkey after 125 mins postinjection; format: ADME, organism-based, Macaca fascicularis; conditions: in vivo
Putamen [10] = test: Drug uptake in anesthetized cynomolgus monkey brain putamen after 145 mins postinjection; format: ADME, organism-based, Macaca fascicularis; conditions: in vivo
Putamen [11] = test: Drug uptake in anesthetized cynomolgus monkey brain putamen after 165 mins postinjection; format: ADME, organism-based, Macaca fascicularis; conditions: in vivo, 2.75 h
Putamen [12] = test: Drug uptake in anesthetized cynomolgus monkey brain putamen after 215 mins postinjection; format: ADME, organism-based, Macaca fascicularis; conditions: in vivo
[13] = Ratio of drug uptake in occipital lobe to cerebellum in anesthetized cynomolgus monkey after 185 mins postinjection; format: ADME, organism-based, Macaca fascicularis; conditions: in vivo
[14] = Ratio of drug uptake in occipital lobe to cerebellum in anesthetized cynomolgus monkey after 195 mins postinjection; format: ADME, organism-based, Macaca fascicularis; conditions: in vivo, 3.25 h
[15] = Ratio of drug uptake in frontal lobe to cerebellum in anesthetized cynomolgus monkey after 3.5 mins postinjection; format: ADME, organism-based, Macaca fascicularis; conditions: in vivo
[16] = Ratio of drug uptake in frontal lobe to cerebellum in anesthetized cynomolgus monkey after 95 mins postinjection; format: ADME, organism-based, Macaca fascicularis; conditions: in vivo
Midbrain [17] = test: Drug uptake in anesthetized cynomolgus monkey brain midbrain after 175 mins postinjection; format: ADME, organism-based, Macaca fascicularis; conditions: in vivo
Midbrain [18] = test: Drug uptake in anesthetized cynomolgus monkey brain midbrain after 225 mins postinjection; format: ADME, organism-based, Macaca fascicularis; conditions: in vivo, 3.75 h
Pons [19] = test: Drug uptake in anesthetized cynomolgus monkey brain pons after 0.5 mins postinjection; format: ADME, organism-based, Macaca fascicularis; conditions: in vivo
Pons [20] = test: Drug uptake in anesthetized cynomolgus monkey brain pons after 12.5 mins postinjection; format: ADME, organism-based, Macaca fascicularis; conditions: in vivo
Pons [21] = test: Drug uptake in anesthetized cynomolgus monkey brain pons after 18.5 mins postinjection; format: ADME, organism-based, Macaca fascicularis; conditions: in vivo
Pons [22] = test: Drug uptake in anesthetized cynomolgus monkey brain pons after 55 mins postinjection; format: ADME, organism-based, Macaca fascicularis; conditions: in vivo
Caudate [23] = test: Drug uptake in anesthetized cynomolgus monkey brain caudate after 185 mins postinjection; format: ADME, organism-based, Macaca fascicularis, Caudate nucleus; conditions: in vivo
[24] = Ratio of drug uptake in caudate to cerebellum in anesthetized cynomolgus monkey after 12.5 mins postinjection; format: ADME, organism-based, Macaca fascicularis; conditions: in vivo
[25] = Ratio of drug uptake in caudate to cerebellum in anesthetized cynomolgus monkey after 135 mins postinjection; format: ADME, organism-based, Macaca fascicularis; conditions: in vivo, 2.25 h
Pons [26] = test: Drug uptake in anesthetized cynomolgus monkey brain pons after 125 mins postinjection; format: ADME, organism-based, Macaca fascicularis; conditions: in vivo
Pons [27] = test: Drug uptake in anesthetized cynomolgus monkey brain pons after 145 mins postinjection; format: ADME, organism-based, Macaca fascicularis; conditions: in vivo
Pons [28] = test: Drug uptake in anesthetized cynomolgus monkey brain pons after 215 mins postinjection; format: ADME, organism-based, Macaca fascicularis; conditions: in vivo
Medulla [29] = test: Drug uptake in anesthetized cynomolgus monkey brain medulla after 15.5 mins postinjection; format: ADME, organism-based, Macaca fascicularis; conditions: in vivo
Medulla [30] = test: Drug uptake in anesthetized cynomolgus monkey brain medulla after 18.5 mins postinjection; format: ADME, organism-based, Macaca fascicularis; conditions: in vivo
Medulla [31] = test: Drug uptake in anesthetized cynomolgus monkey brain medulla after 95 mins postinjection; format: ADME, organism-based, Macaca fascicularis; conditions: in vivo
Medulla [32] = test: Drug uptake in anesthetized cynomolgus monkey brain medulla after 135 mins postinjection; format: ADME, organism-based, Macaca fascicularis; conditions: in vivo, 2.25 h
Medulla [33] = test: Drug uptake in anesthetized cynomolgus monkey brain medulla after 145 mins postinjection; format: ADME, organism-based, Macaca fascicularis; conditions: in vivo
Medulla [34] = test: Drug uptake in anesthetized cynomolgus monkey brain medulla after 215 mins postinjection; format: ADME, organism-based, Macaca fascicularis; conditions: in vivo
[35] = Drug uptake in anesthetized cynomolgus monkey brain cerebellum after 0.5 mins postinjection; format: ADME, organism-based, Macaca fascicularis; conditions: in vivo
[36] = Drug uptake in anesthetized cynomolgus monkey brain cerebellum after 215 mins postinjection; format: ADME, organism-based, Macaca fascicularis; conditions: in vivo
[37] = Ratio of drug uptake in putamen to cerebellum in anesthetized cynomolgus monkey after 215 mins postinjection; format: ADME, organism-based, Macaca fascicularis; conditions: in vivo
[38] = Ratio of drug uptake in thalamus to cerebellum in anesthetized cynomolgus monkey after 95 mins postinjection; format: ADME, organism-based, Macaca fascicularis; conditions: in vivo
Caudate [39] = test: Drug uptake in anesthetized cynomolgus monkey brain caudate after 75 mins postinjection; format: ADME, organism-based, Macaca fascicularis, Caudate nucleus; conditions: in vivo, 1.25 h
Caudate [40] = test: Drug uptake in anesthetized cynomolgus monkey brain caudate after 105 mins postinjection; format: ADME, organism-based, Macaca fascicularis, Caudate nucleus; conditions: in vivo, 1.75 h
Caudate [41] = test: Drug uptake in anesthetized cynomolgus monkey brain caudate after 215 mins postinjection; format: ADME, organism-based, Macaca fascicularis, Caudate nucleus; conditions: in vivo
Thalamus = test: Drug uptake in anesthetized cynomolgus monkey brain thalamus after 22.5 mins postinjection; format: ADME, organism-based, Macaca fascicularis; set-up: unit not given here; conditions: in vivo, 0.375 h
Putamen [42] = test: Drug uptake in anesthetized cynomolgus monkey brain putamen after 18.5 mins postinjection; format: ADME, organism-based, Macaca fascicularis; set-up: unit not given here; conditions: in vivo
Putamen [43] = test: Drug uptake in anesthetized cynomolgus monkey brain putamen after 55 mins postinjection; format: ADME, organism-based, Macaca fascicularis; set-up: unit not given here; conditions: in vivo
Midbrain [44] = test: Drug uptake in anesthetized cynomolgus monkey brain midbrain after 4.5 mins postinjection; format: ADME, organism-based, Macaca fascicularis; set-up: unit not given here; conditions: in vivo, 0.075 h
Midbrain [45] = test: Drug uptake in anesthetized cynomolgus monkey brain midbrain after 18.5 mins postinjection; format: ADME, organism-based, Macaca fascicularis; set-up: unit not given here; conditions: in vivo
Midbrain [46] = test: Drug uptake in anesthetized cynomolgus monkey brain midbrain after 75 mins postinjection; format: ADME, organism-based, Macaca fascicularis; set-up: unit not given here; conditions: in vivo, 1.25 h
[47] = Ratio of drug uptake in midbrain to cerebellum in anesthetized cynomolgus monkey after 135 mins postinjection; format: ADME, organism-based, Macaca fascicularis; conditions: in vivo, 2.25 h

O=C(OCC[18F])C1C2CCC(CC1c1ccc(/C=C\I)cc1)N2 (stereo not drawn)
Ratio [1]: 1.6
Ratio [2]: 2.1
Ratio [3]: 1.4
Ratio [4]: 2.6
Drug uptake [5]: 1.21
Drug uptake [6]: 2.24
Drug uptake [7]: 1.56
Ratio [8]: 0.8
Ratio [9]: 1.3
Drug uptake (Putamen [10]): 4.31
Drug uptake (Putamen [11]): 4.22
Drug uptake (Putamen [12]): 3.93
Ratio [13]: 1.4
Ratio [14]: 1.4
Ratio [15]: 0.5
Ratio [16]: 0.9
Drug uptake (Midbrain [17]): 4.61
Drug uptake (Midbrain [18]): 4.51
Drug uptake (Pons [19]): 0
Drug uptake (Pons [20]): 1.88
Drug uptake (Pons [21]): 2.17
Drug uptake (Pons [22]): 2.99
Drug uptake (Caudate [23]): 2.97
Ratio [24]: 0.8
Ratio [25]: 1.8
Drug uptake (Pons [26]): 3.56
Drug uptake (Pons [27]): 3.51
Drug uptake (Pons [28]): 3.39
Drug uptake (Medulla [29]): 2.67
Drug uptake (Medulla [30]): 3.01
Drug uptake (Medulla [31]): 3.88
Drug uptake (Medulla [32]): 3.69
Drug uptake (Medulla [33]): 3.61
Drug uptake (Medulla [34]): 3.32
Drug uptake [35]: 0
Drug uptake [36]: 1.18
Ratio [37]: 3.3
Ratio [38]: 1.9
Drug uptake (Caudate [39]): 2.98
Drug uptake (Caudate [40]): 3.13
Drug uptake (Caudate [41]): 2.81
Drug uptake (Thalamus): 2.9
Drug uptake (Putamen [42]): 2.87
Drug uptake (Putamen [43]): 4.02
Drug uptake (Midbrain [44]): 1.23
Drug uptake (Midbrain [45]): 2.78
Drug uptake (Midbrain [46]): 4.41
Ratio [47]: 2.8
